PMC12454639, “Direct disassembly of α-syn preformed fibrils into α-syn monomers by an all-D-peptide” (NPJ Parkinson's Disease, 2025)
Square brackets hold non-standard residues; d marks the D form. Peptide text beside a SMILES is read from it.

Assays:
[1] = tested on: α-synuclein monomer seeded with small α-syn PFF; test: CD spectroscopy of the seeded aggregation assay; assay type: biochemical; details: 30 µM SVD-1a, 500 nM PFF, 15 µM α-syn monomer, PBS pH 7.4, 37 °C, 24 h
Experimental: Far-UV circular dichroism (CD) data were collected using a Jasco J-1100 spectropolarimeter (Jasco, GE). 350 µl samples were pooled and loaded into a high precision quartz cuvette with a path length of 1 mm (Hellma group, GE). A scan speed of 20 nm/min with five accumulations per sample was performed using far UV wavelengths from 260 to 190 nm. Baseline was corrected by subtracting measurements of the reference sample only.
Supplementary Fig. 13: Analysis of the seeded aggregation assay in the presence and absence of SVD-1a using circular dichroism (CD) spectroscopy. Small α-syn PFF (500 nM) were incubated in PBS (pH 7.4) at 37 °C under quiescent conditions for 24 hours, either alone or in the presence of 15 µM α-synuclein monomer and/or 30 µM SVD-1a. For each condition and time point, three replicates (each 120 µl) were pooled and analyzed by CD spectroscopy at 0, 2, 8, and 24 hours. Far-UV ellipticity was measured in a quartz cuvette (path length = 10 mm) using a J-1100 CD spectrometer (Jasco, GE). […] (D) Co-incubation of 500 nM α-synuclein PFFs with 15 µM α-synuclein monomer induced a structural transition towards β-sheet formation, as reflected in the CD spectrum (referenced to spectrum in (A)).

small α-syn PFF = test: Western blot of small α-syn PFF; assay type: biochemical; details: 200 nM PFF with 250, 500, 750, 1000 nM SVD-1a, 72 h, 37 °C; antibody Syn211
Experimental: Samples of 200 nM small α-syn PFF or α-syn monomer were incubated with 0, 250, 500, 750 and 1000 nM SVD-1a for 72 h at 37 °C in PBS pH 7.4 with 0.05% sodium azide. Samples were then resolved via SDS–PAGE on 12% TGX gels (Bio-Rad, Hercules, USA) using the Mini-PROTEAN Tetra Cell (Bio-Rad, Hercules, USA). Proteins were transferred to a PVDF membrane (0.2 µm pore size) (Trans-Blot Turbo Mini PVDF Transfer Pack, Bio-Rad, Hercules, USA) at 25 V, 1.3 A for 7 min. Blocking of the membrane was carried out with 2% nonfat dried milk powder in TBS + 0.05% Tween 20 for 1 h at room temperature. Anti-α-synuclein antibody Syn211 (RRID:AB_628318, Santa Cruz Biotechnology, Dallas, TX, USA) was used as primary antibody at a concentration of 1 µg/ml in TBS-T for 1 h at RT. As a secondary antibody, an HRP-coupled goat anti-mouse IgG (RRID:AB_228307, Thermo Fisher Scientific, Waltham, MA, USA) was used at 0.2 µg/ml in TBS-T for 1 h at RT. […]
Supplementary Figure 11: Western blot of small α-syn PFF samples incubated with SVD-1a. […] A PFF and monomer sample that were incubated without SVD-1a served as controls. α-Syn was detected with Syn211. A prominent monomer band was present between the 15 kDa- and 20 kDa marker bands, detected with shorter exposure time (left). […] In the upper part of the blot, above the marker range, PFFs were detected using longer exposure time due to weaker signal (right).

`CC[C@@H](C)[C@@H](NC(=O)[C@@H](Cc1c[nH]cn1)NC(=O)[C@@H](CCC(=O)O)NC(=O)[C@@H](CCC(N)=O)NC(=O)[C@@H](Cc1c[nH]c2ccccc12)NC(=O)[C@@H](Cc1ccc(O)cc1)NC(=O)[C@H](NC(=O)[C@@H](CCC(=O)O)NC(=O)[C@@H](Cc1c[nH]cn1)NC(=O)[C@H](NC(=O)[C@H]1CCCN1C(=O)[C@@H](CC(C)C)NC(=O)[C@H](N)CCCNC(=N)N)[C@H](C)O)[C@H](C)O)C(=O)N[C@H](Cc1c[nH]c2ccccc12)C(=O)N[C@H](Cc1c[nH]cn1)C(=O)N[C@H](C)C(=O)N[C@H](CCCNC(=N)N)C(=O)N[C@H](CCCNC(=N)N)C(=O)N[C@H](CCCNC(=N)N)C(=O)N[C@H](CCCNC(=N)N)C(=O)N[C@H](CCCNC(=N)N)C(N)=O` [SVD-1a] (H-[dR][dL][dP][dT][dH][dE][dT][dY][dW][dQ][dE][dH][dI][dW][dH][dA][dR][dR][dR][dR][dR]-NH2) was tested, and the “α-syn secondary structure under seeded conditions” value [1] was “stabilized the α-synuclein monomer in its random coil conformation throughout the incubation period” and the “intensity of higher MW α-syn bands” value (small α-syn PFF) was “progressively reduced in presence of higher SVD-1a concentrations”.
